Assay results: patent publication US11421349B2, “Photoactivatable fibers and fabric media” (KLOX TECHNOLOGIES INC., priority 2014, dated 2022)

What was measured:
Format in all cases: physicochemical
[1] = Effect of addition of a lubricant (lurol oil) on the fluorescence emitted from Eosin Y solution; details: 320 μL lurol oil added to 2 mL of 109 μg/g Eosin Y in water
Method: The fluorescence of these two solutions was measured to determine if the lurol oil had any effect (FIG. 4).

[2] = Qualitative analysis of dental fiber doping (fluorescence under blue lamp)
Source text: Commercially available dental fibers were dipped into solutions of Eosin […], or 0.1 g/L) for 10 seconds. The fibers were taken out and observed for color, then put under a blue lamp and the fluorescence was observed qualitatively. […] Dental fibers were dipped into solutions of fluorescein (50 […]) for 10 seconds. The fibers were then taken out and observed for color, then put under a blue lamp and the fluorescence was observed qualitatively. […] Dental fibers were dipped into solutions of fluorescein:Eosin […] total chromophore) solution for 10 seconds again. The fibers were then taken out and observed for color, then put under a blue lamp and the fluorescence was observed qualitatively.

[3] = Effect of addition of a lubricant on the fluorescence emission of photoactivatable (doped) fibers; details: same concentration, lurol oil added, FIG. 5B
Source text: In the case of low concentrations of chromophore it can slightly red shift, and reduces bleaching time considerably. In higher concentrations of chromophore it red shifts, as well as increase fluorescence. The most effect seems to be around 10 g/L of lurol oil. Initially the fluorescence of Eosin Y doped fibers was 0.01 (FIG. 5A), but with the lurol oil added the fluorescence is boosted to 0.7. A comparison was done of Eosin Y and Fluorescein at the same concentration with lurol oil added.

## O=C([O-])c1ccccc1-c1c2cc(Br)c(=O)c(Br)c-2oc2c(Br)c([O-])c(Br)cc12.[Na+].[Na+] [Eosin Y, 2′,4′,5′,7′-tetrabromo-fluorescein, dianion]
[1]
  photodegradation of Eosin Y solution with lurol oil: barely photodegraded
  shift of the fluorescence of the solution with lurol oil: red shifted
[1]; FIG. 4
  fluorescence of Eosin Y solution with lurol oil versus without: almost twice as fluorescent
[2]; commercial dental fibers dipped 10 seconds, 300-100 g/L solutions
  fluorescence observed qualitatively under blue lamp: little fluorescence
[2]; dental fibers dipped 10 seconds, 10 g/L solution
  fluorescence observed qualitatively under blue lamp: significant increase in fluorescence
[2]; dental fibers dipped 10 seconds, 50 g/L solution
  fluorescence observed qualitatively under blue lamp: showed fluorescence

## O=C1OC2(c3ccc(O)cc3Oc3cc(O)ccc32)c2ccccc21 [fluorescein]
[3]
  photo-degradation compared with Eosin Y: photo-degrades faster
